From PubChem BioAssay AID180 (DTP/NCI, 2004)
Where “and” joins values, the source holds several entries; their conditions need not be identical. Equal values may be shown once.

System: BDF1 mice, Adenocarcinoma 755 s.c., tumor weight T/C
Test: NCI In Vivo Anticancer Drug Screen. Data for tumor model Adenocarcinoma 755 (subcutaneous) in B6D2F1 (BDF1) mice
Details: endpoint: mean tumor weight, higher = larger tumour
How it was run: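 Transplantable tumor implanted; mice dosed with compound or vehicle; survival or tumor size recorded; ratio of treated to vehicle control reported.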

[1] = dose: 20.0 mg/kg/injection, schedule: Q01DX011 (ip), vehicle: carboxymethylcellulose (CMC)
[2] = dose: 60.0 mg/kg/injection, schedule: Q01DX011 (ip), vehicle: carboxymethylcellulose (CMC)
[3] = dose: 25.0 mg/kg/injection, schedule: Q01DX011 (ip), vehicle: saline
[4] = dose: 9.0 mg/kg/injection, schedule: Q01DX011 (ip), vehicle: carboxymethylcellulose (CMC)

**Q.** What does the source list for [Cl][Pt+2]([Cl])([Cl])[Cl].[Na+].[S-]c1ncnc2nc[nH]c12.[S-]c1ncnc2nc[nH]c12?
**A.** T/C (dose: 1.0 mg/kg/injection, schedule: Q01DX011 (ip), vehicle: carboxymethylcellulose (CMC)): 90 % of control; T/C (dose: 1.7 mg/kg/injection, schedule: Q01DX011 (ip), vehicle: carboxymethylcellulose (CMC)): 101 % of control; T/C (dose: 2.0 mg/kg/injection, schedule: Q01DX011 (ip), vehicle: carboxymethylcellulose (CMC)): 43 % of control; T/C (dose: 3.5 mg/kg/injection, schedule: Q01DX011 (ip), vehicle: carboxymethylcellulose (CMC)): 31 % of control; T/C (dose: 4.0 mg/kg/injection, schedule: Q01DX011 (ip), vehicle: saline): 5 % of control; T/C (dose: 7.0 mg/kg/injection, schedule: Q01DX011 (ip), vehicle: carboxymethylcellulose (CMC)): 3 % of control and 6 % of control; T/C (dose: 8.0 mg/kg/injection, schedule: Q01DX011 (ip), vehicle: saline): 4 % of control; T/C (dose: 10.0 mg/kg/injection, schedule: Q01DX011 (ip), vehicle: carboxymethylcellulose (CMC)): 21 % of control; T/C (dose: 14.0 mg/kg/injection, schedule: Q01DX011 (ip), vehicle: carboxymethylcellulose (CMC)): 1 % of control and 2 % of control; T/C [1]: 1 % of control; T/C (dose: 28.0 mg/kg/injection, schedule: Q01DX011 (ip), vehicle: carboxymethylcellulose (CMC)): 5 % of control; T/C (dose: 32.0 mg/kg/injection, schedule: Q01DX011 (ip), vehicle: saline): 1 % of control; T/C (dose: 43.8 mg/kg/injection, schedule: Q01DX011 (oral), vehicle: saline): 96 % of control; T/C (dose: 87.5 mg/kg/injection, schedule: Q01DX011 (oral), vehicle: saline): 12 % of control; T/C (dose: 175.0 mg/kg/injection, schedule: Q01DX011 (oral), vehicle: saline): 7 % of control

**Q.** Which results are given for CSc1nc(=O)cc2[nH]c(O)cn12?
**A.** T/C (dose: 30.0 mg/kg/injection, schedule: Q01DX011 (ip), vehicle: carboxymethylcellulose (CMC)): 90 % of control; T/C [2]: 98 % of control; T/C (dose: 120.0 mg/kg/injection, schedule: Q01DX011 (ip), vehicle: carboxymethylcellulose (CMC)): 50 % of control; T/C (dose: 240.0 mg/kg/injection, schedule: Q01DX011 (ip), vehicle: carboxymethylcellulose (CMC)): 118 % of control

**Q.** What does the source list for Nc1nc(SCC(=O)c2ccccc2)c2[nH]cnc2n1?
**A.** T/C (dose: 0.46 mg/kg/injection, schedule: Q01DX011 (ip), vehicle: saline): 95 % of control; T/C (dose: 0.93 mg/kg/injection, schedule: Q01DX011 (ip), vehicle: saline): 91 % of control; T/C (dose: 1.87 mg/kg/injection, schedule: Q01DX011 (ip), vehicle: saline): 75 % of control; T/C (dose: 15.0 mg/kg/injection, schedule: Q01DX011 (ip), vehicle: saline): 6 % of control; T/C (dose: 30.0 mg/kg/injection, schedule: Q01DX011 (ip), vehicle: saline): 4 % of control and 6 % of control; T/C (dose: 60.0 mg/kg/injection, schedule: Q01DX011 (ip), vehicle: saline): 4 % of control and 12 % of control; T/C (dose: 120.0 mg/kg/injection, schedule: Q01DX011 (ip), vehicle: saline): 2 % of control; T/C (dose: 240.0 mg/kg/injection, schedule: Q01DX011 (ip), vehicle: saline): 2 % of control

**Q.** Which T/C (dose: 3.3 mg/kg/injection, schedule: Q01DX011 (ip), vehicle: methylcellulose (MC)) does the source give for O=C(Nc1ccc(C2=NCCN2)cc1)c1ccc(C(=O)Nc2ccc(C3=NCCN3)cc2)cc1 here?
**A.** Its T/C is 122 % of control.

**Q.** What about the T/C (dose: 6.5 mg/kg/injection, schedule: Q01DX011 (ip), vehicle: methylcellulose (MC)) of the same compound?
**A.** The T/C was 113 % of control.

**Q.** With c1nc(N2CC2)c2cnn(C3CCCCO3)c2n1 (stereo unspecified) as the compound, how does the T/C (dose: 1.5 mg/kg/injection, schedule: Q01DX011 (ip), vehicle: other) read?
**A.** The T/C was 101 % of control.

**Q.** And the T/C (dose: 3.0 mg/kg/injection, schedule: Q01DX011 (ip), vehicle: other)?
**A.** The T/C was 102 % of control.

**Q.** And the T/C (dose: 6.0 mg/kg/injection, schedule: Q01DX011 (ip), vehicle: other)?
**A.** Its T/C is 81 % of control.

**Q.** What about the T/C (dose: 12.0 mg/kg/injection, schedule: Q01DX011 (ip), vehicle: other) of the same compound?
**A.** The T/C was 99 % of control.

**Q.** And the T/C (dose: 12.5 mg/kg/injection, schedule: Q01DX011 (ip), vehicle: saline)?
**A.** The T/C was 30 % of control.

**Q.** What about the T/C (dose: 25.0 mg/kg/injection, schedule: Q01DX011 (ip), vehicle: other) of the same compound?
**A.** The T/C was 113 % of control.

**Q.** What about the T/C [3] of the same compound?
**A.** Its T/C is 45 % of control.

**Q.** Which results are given for C=CC(O)CN1CC1=C (stereo unspecified) (tested in a mixture with another compound)?
**A.** T/C (dose: 1.9 mg/kg/injection, schedule: Q01DX011 (ip), vehicle: methylcellulose (MC)): 95 % of control; T/C (dose: 3.75 mg/kg/injection, schedule: Q01DX011 (ip), vehicle: methylcellulose (MC)): 121 % of control; T/C (dose: 7.5 mg/kg/injection, schedule: Q01DX011 (ip), vehicle: methylcellulose (MC)): 106 % of control; T/C (dose: 15.0 mg/kg/injection, schedule: Q01DX011 (ip), vehicle: methylcellulose (MC)): 49 % of control

**Q.** With Cn1c(=O)c2[nH]cnc2n(C)c1=O as the compound, how does the T/C (dose: 14.5 mg/kg/injection, schedule: Q01DX011 (ip), vehicle: carboxymethylcellulose (CMC)) read?
**A.** The T/C was 85 % of control.

**Q.** And the T/C (dose: 18.25 mg/kg/injection, schedule: Q01DX011 (ip), vehicle: carboxymethylcellulose (CMC))?
**A.** The T/C was 68 % of control.

**Q.** And the T/C (dose: 19.87 mg/kg/injection, schedule: Q01DX011 (ip), vehicle: carboxymethylcellulose (CMC))?
**A.** Its T/C is 80 % of control.

**Q.** And the T/C (dose: 29.0 mg/kg/injection, schedule: Q01DX011 (ip), vehicle: carboxymethylcellulose (CMC))?
**A.** Its T/C is 44 % of control.

**Q.** And the T/C (dose: 36.5 mg/kg/injection, schedule: Q01DX011 (ip), vehicle: carboxymethylcellulose (CMC))?
**A.** Its T/C is 92 % of control.

**Q.** And the T/C (dose: 39.74 mg/kg/injection, schedule: Q01DX011 (ip), vehicle: carboxymethylcellulose (CMC))?
**A.** The T/C was 52 % of control.

**Q.** And the T/C (dose: 63.0 mg/kg/injection, schedule: Q01DX011 (ip), vehicle: carboxymethylcellulose (CMC))?
**A.** The T/C was 86 % of control.

**Q.** And the T/C (dose: 77.33 mg/kg/injection, schedule: Q01DX011 (ip), vehicle: carboxymethylcellulose (CMC))?
**A.** Its T/C is 53 % of control and 72 % of control.

**Q.** And the T/C (dose: 79.48 mg/kg/injection, schedule: Q01DX011 (ip), vehicle: carboxymethylcellulose (CMC))?
**A.** The T/C was 53 % of control.

**Q.** And the T/C (dose: 116.0 mg/kg/injection, schedule: Q01DX011 (ip), vehicle: carboxymethylcellulose (CMC))?
**A.** Its T/C is 75 % of control.

**Q.** And the T/C (dose: 158.97 mg/kg/injection, schedule: Q01DX011 (ip), vehicle: carboxymethylcellulose (CMC))?
**A.** The T/C was 60 % of control.

**Q.** Which T/C (dose: 50.0 mg/kg/injection, schedule: Q01DX011 (ip), vehicle: other) does the source give for COc1cccc2c1cc([N+](=O)[O-])c1c(C(=O)O)cc3c(c12)OCO3 here?
**A.** Its T/C is 59 % of control.

**Q.** And the T/C (dose: 100.0 mg/kg/injection, schedule: Q01DX011 (ip), vehicle: other)?
**A.** Its T/C is 43 % of control.

**Q.** For C#C[C@]1(O)CC[C@H]2[C@@H]3CCc4cc(O)ccc4[C@H]3CC[C@@]21C, which T/C (dose: 85.0 mg/kg/injection, schedule: Q01DX011 (sc), vehicle: steriod suspending solution) is on record?
**A.** Its T/C is 51 % of control and 53 % of control.

**Q.** And the T/C (dose: 170.0 mg/kg/injection, schedule: Q01DX011 (sc), vehicle: steriod suspending solution)?
**A.** The T/C was 38 % of control and 43 % of control.

**Q.** What about the T/C (dose: 340.0 mg/kg/injection, schedule: Q01DX011 (sc), vehicle: steriod suspending solution) of the same compound?
**A.** Its T/C is 37 % of control and 43 % of control.

**Q.** What about the T/C (dose: 680.0 mg/kg/injection, schedule: Q01DX011 (sc), vehicle: steriod suspending solution) of the same compound?
**A.** Its T/C is 23 % of control.

**Q.** With CCCCn1cnc2c(SC)nc(N)nc21 as the compound, how does the T/C (dose: 3.8 mg/kg/injection, schedule: Q01DX011 (ip), vehicle: carboxymethylcellulose (CMC)) read?
**A.** Its T/C is 95 % of control.

**Q.** And the T/C (dose: 7.5 mg/kg/injection, schedule: Q01DX011 (ip), vehicle: carboxymethylcellulose (CMC))?
**A.** Its T/C is 49 % of control.

**Q.** And the T/C [4]?
**A.** Its T/C is 79 % of control.

**Q.** What about the T/C (dose: 13.0 mg/kg/injection, schedule: Q01DX011 (ip), vehicle: carboxymethylcellulose (CMC)) of the same compound?
**A.** The T/C was 69 % of control.

**Q.** What about the T/C (dose: 15.0 mg/kg/injection, schedule: Q01DX011 (ip), vehicle: carboxymethylcellulose (CMC)) of the same compound?
**A.** The T/C was 30 % of control.

**Q.** What about the T/C [1] of the same compound?
**A.** The T/C was 44 % of control.

**Q.** And the T/C [2]?
**A.** The T/C was 3 % of control and 4 % of control.

**Q.** And the T/C (dose: 115.0 mg/kg/injection, schedule: Q01DX011 (ip), vehicle: carboxymethylcellulose (CMC))?
**A.** Its T/C is 2 % of control and 3 % of control.

**Q.** How did the T/C [4] turn out when COC(=O)C1=CO[C@H](C)[C@@H]2CN3CCc4c([nH]c5ccccc45)[C@@H]3C[C@H]12 was run?
**A.** The T/C was 95 % of control.

**Q.** And the T/C (dose: 17.5 mg/kg/injection, schedule: Q01DX011 (ip), vehicle: carboxymethylcellulose (CMC))?
**A.** The T/C was 92 % of control.

**Q.** What about the T/C (dose: 35.0 mg/kg/injection, schedule: Q01DX011 (ip), vehicle: carboxymethylcellulose (CMC)) of the same compound?
**A.** Its T/C is 116 % of control.

**Q.** What about the T/C (dose: 70.0 mg/kg/injection, schedule: Q01DX011 (ip), vehicle: carboxymethylcellulose (CMC)) of the same compound?
**A.** The T/C was 93 % of control.

**Q.** For CN[C@H]1CCc2cc(OC)c(OC)c(OC)c2-c2ccc(OC)c(=O)cc21, which T/C (dose: 0.75 mg/kg/injection, schedule: Q01DX011 (ip), vehicle: methylcellulose (MC)) is on record?
**A.** The T/C was 44 % of control.

**Q.** And the T/C (dose: 1.5 mg/kg/injection, schedule: Q01DX011 (ip), vehicle: methylcellulose (MC))?
**A.** Its T/C is 60 % of control.

**Q.** And the T/C (dose: 3.0 mg/kg/injection, schedule: Q01DX011 (ip), vehicle: methylcellulose (MC))?
**A.** The T/C was 56 % of control.

**Q.** And the T/C (dose: 6.0 mg/kg/injection, schedule: Q01DX011 (ip), vehicle: methylcellulose (MC))?
**A.** Its T/C is 7 % of control.

**Q.** How did the T/C [3] turn out when O=c1[nH]c(=O)c2[nH]c(N=Nc3ccc(N(CCCl)CCCl)cc3)nc2[nH]1 was run?
**A.** Its T/C is 74 % of control.

**Q.** What about the T/C (dose: 50.0 mg/kg/injection, schedule: Q01DX011 (ip), vehicle: saline) of the same compound?
**A.** Its T/C is 56 % of control.

**Q.** What about the T/C (dose: 100.0 mg/kg/injection, schedule: Q01DX011 (ip), vehicle: saline) of the same compound?
**A.** Its T/C is 6 % of control and 19 % of control.
